In paper PMC8624133, “10th Trends in Medical Mycology Held on 8 to 11 October 2021, Aberdeen, Scotland, Organized by the European Confederation of Medical Mycology (ECMM)” (Journal of Fungi, 2021):
Values after ≈ are worked out from the molar mass of the structure shown.

What was measured:
C. parapsilosis = assay type: cell-based, Candida parapsilosis
C. albicans = assay type: cell-based, Candida albicans
C. glabrata = assay type: cell-based, Candida glabrata
Other species of Candida = assay type: cell-based, Candida spp.
C. tropicalis = assay type: cell-based, Candida tropicalis
C. krusei = assay type: cell-based, Candida krusei
Sporothrix brasiliensis = experiment: Murine subcutaneous sporotrichosis model; assay type: in vivo, Balb/c mice
Procedure: Materials & Methods: 50 Balb/c mice, male, five to seven-week-old, were subcutaneous infected (left footpad) by a clinical isolate of S. brasiliensis (5.4 × 10^7 yeast/mice). Treatments started seven days post-inoculation (p.i) in all five groups (10 mice/each): G1 control group (placebo—receiving just the diluent of the drugs), G2 treatment group (itraconazole—ITZ 50 mg/kg); G3 to G5 DD treatment groups, 1, 5 and 10 mg/kg, respectively. All mice were treated once a day by oral gavage, for 30 consecutive days. Physical conditions and behavior were daily evaluated, and individual weight was weekly determined. At the 32nd day p.i. (48 h after the end of the treatments) animals were euthanasied and lung, liver, brain, kidneys, testicle and footpad were recovered aseptically and homogenized to mycological analysis. Fungal burden in each organ was measured by quantitatively counting colony-forming units (CFU). The determination of colony forming units (CFU)/gram of tissue (g) of S. brasiliensis in internal organs of groups were compared by non-parametric tests using Kruskal-Wallis combined with Wilcoxon. The weight loss assay was calculated considering the percentage of loss and/or increase between the value corresponding to the fungal inoculation day and to the end of the treatment.

R. delemar = experiment: Murine mucormycosis, immunosuppressed mice infected intratracheally; assay type: in vivo, ICR mice; details: n = 20/arm
Procedure: (§1) Methods & Materials: In vitro susceptibility was conducted by the CLSI M38 method using a clinical isolate of Rhizopus delemar (a common cause of mucormycosis). ICR mice were immunosuppressed with cyclophosphamide and cortisone acetate on days −2, +3, and +8, relative to infection with intratracheally instilled R. delemar. […] Mice survival through Day +21 served as the primary endpoint.

R. delemar 99–880 = experiment: CLSI M38 in vitro susceptibility; assay type: cell-based, Rhizopus delemar
Procedure: as §1

Rhizopus oryzae = experiment: Pandemic Box screening, EUCAST protocol; assay type: cell-based; details: for inhibition of R. oryzae growth: 5 µM
Procedure: (§2) Materials & Methods: An initial screening of the 400 compounds (5 µM) in this collection was performed with the Rhizopus oryzae, according to the EUCAST protocol. Compounds with activity against R. oryzae have also been tested against other mucormycosis etiological agents (Rhizopus microsporus e Rhizopus stolonifer) at concentrations ranging from 0.08 µM to 20 µM.

three Rhizopus species = experiment: MIC and fungicidal activity; assay type: cell-based, Rhizopus oryzae, R. microsporus, R. stolonifer; details: for MIC: 0.08 µM to 20 µM tested
Procedure: as §2

McLDM strains = experiment: EUCAST MIC, S. cerevisiae overexpressing M. circinelloides LDM, resistance phenotypes; assay type: cell-based, Saccharomyces cerevisiae
Trichophyton spp. = experiment: Agar-based screening method; assay type: cell-based; details: 0.5 McF, 5 days, 30 °C
Procedure: Inter-experimental variation was evaluated by testing 10 isolates on three different days. Single-centre validation: After determining the optimal conditions for the agar screening method, 112 molecularly identified Trichophyton spp. clinical isolates were tested.

[1] = system: clinical dermatophyte isolates; experiment: Inhibition of dermatophyte biofilm formation; assay type: cell-based
Procedure: Materials and Methods: The study population consisted of 50 dermatophyte isolates that were collected from 2019 to 2020 from patients referred to the two mycology laboratory of Shiraz, Iran. The isolates were identified by ITS gene region sequencing. The suspension (equivalent to 0.5 McFarland) of the isolates was used to evaluate the ability of the isolates to form biofilms and also the effect of itraconazole, terbinafine and griseofulvin at concentrations of 2–32 μg/mL on inhibiting biofilm formation. Two optical microscope and a scanning electron microscope were used to study the microscopic structure of biofilms formed on the surface of 96-well plate wells.

[2] = system: invasive and mucocutaneous fungal infections; experiment: FURI and CARES open-label studies combined; assay type: in vivo, human; details: 84 patients
Source text: Methods: FURI subjects were eligible for enrollment if they had proven or probable severe mucocutaneous candidiasis, invasive candidiasis, invasive aspergillosis, or other fungal diseases with evidence of treatment failure, intolerance, or toxicity related to a currently approved standard-of-care antifungal treatment or if they were unable to receive an approved oral antifungal option (e.g., susceptibility of the organism) and a continued IV antifungal therapy was clinically undesirable or unfeasible.

[3] = system: refractory fungal disease; experiment: FURI Phase 3 open-label study, refractory subset; assay type: in vivo, human; details: 44 refractory patients
Source text: Methods: FURI patients were eligible for enrollment if they have proven or probable, severe mucocutaneous candidiasis, invasive candidiasis or invasive aspergillosis and documented evidence of failure, intolerance, or toxicity related to a currently approved standard-of-care antifungal treatment or could not receive approved oral antifungal options (e.g., susceptibility of the organism) and continued IV antifungal therapy was clinically undesirable or unfeasible.

[4] = system: Exophiala phaeomuriformis; experiment: MIC, CLSI M27-A3; assay type: cell-based; details: read-out: MIC values
Procedure: Materials & Methods: The aviation kerosone samples came from an aviation company in Porto Alegre, state of Rio Grande do Sul, Brazil. The fungi isolation was carried out using the modified ASTM D6974-09 Standard. In this procedure, 500 mL kerosene samples were filtered, in triplicate, under aseptic conditions, under vacuum, using a 0.22 μm membrane (Millipore). After filtering, the membranes were deposited in potato dextrose agar culture medium. The plates were incubated in an oven at 30 °C for seven days. After this period, the colonies were isolated in new culture media for purification of the isolates. Molecular identification was performed through the sequencing of ITS DNA regions. The profile of sensitivity to clinical antifungals was assessed following protocols M27-A3 of the Clinical and Laboratory Standards Institute (CLSI).

[5] = system: serious or life-threatening pulmonary aspergillosis; experiment: Special Needs program: inhaled opelconazole in patients; assay type: in vivo, human
Source text: Opelconazole has been supplied to patients with serious or life-threatening pulmonary aspergillosis who have not responded to available mold-active therapies under a Special Needs program regulated in the United Kingdom by the Medicines and Healthcare products Regulatory Agency. Successful outcomes in the first two patients who developed invasive pulmonary aspergillosis due to infections with A. fumigatus complex shortly after lung transplantation have been reported [Pagani 2020].

[6] = following inhaled delivery, ref Colley T et al., 2017, 2019; cited from earlier work
Source text: A potent, effective inhaled anti-fungal agent with prolonged lung tissue residence and minimal systemic […] would be a valuable adjunct to current therapeutic options. To date, treatment using inhaled antifungal agents has been limited to repurposing available systemic medicines. Opelconazole is a novel triazole antifungal agent which was specifically designed for inhaled use and which is being developed as an inhaled treatment for pulmonary fungal disease.

[7] = system: A. fumigatus (resistant to posaconazole strain v79-63); experiment: Neutropenic animal model of invasive pulmonary aspergillosis; assay type: in vivo, CD-1 mice
[8] = 11 treated patients and 1 on prophylaxis

Nc1nc(=O)[nH]cc1F [5-FC, 5-flucytosine]
I (intermediate) isolates, n (%) (C. parapsilosis): 1 (0.6%)
R (resistant) isolates, n (%) (C. parapsilosis): 2 (01.2%)
S (sensitive) isolates, n (%) (C. parapsilosis): 170 (98.3%)
I (intermediate) isolates, n (%) (C. albicans): 1 (0.5%)
R (resistant) isolates, n (%) (C. albicans): 2 (1%)
S (sensitive) isolates, n (%) (C. albicans): 199 (98.5%)
I (intermediate) isolates, n (%) (C. glabrata): 0 (0%)
R (resistant) isolates, n (%) (C. glabrata): 0 (0%)
S (sensitive) isolates, n (%) (C. glabrata): 71 (100%)
I (intermediate) isolates, n (%) (Other species of Candida): 0 (0%)
R (resistant) isolates, n (%) (Other species of Candida): 0 (0%)
S (sensitive) isolates, n (%) (Other species of Candida): 26 (100%)
I (intermediate) isolates, n (%) (C. tropicalis): 0 (0%)
R (resistant) isolates, n (%) (C. tropicalis): 0 (0%)
S (sensitive) isolates, n (%) (C. tropicalis): 57 (100%)
I (intermediate) isolates, n (%) (C. krusei): 3 (42.9%)
R (resistant) isolates, n (%) (C. krusei): 3 (42.9%)
S (sensitive) isolates, n (%) (C. krusei): 1 (14.3%)

c1ccc([Se][Se]c2ccccc2)cc1 [DD, Diphenyl diselenide]
weight loss during treatment vs control group (Sporothrix brasiliensis; DD 5 mg/kg): statistically higher rate of weight loss
fungal burden of internal organs vs placebo group (Sporothrix brasiliensis; oral gavage once a day, 30 days, ITZ 50 mg/kg, DD 1, 5 or 10 mg/kg): higher fungal burdens

CC(C)[C@@H](C)[C@@]1(C)CC[C@]2(C)[C@H]3CC[C@@H]4[C@@]5(COC[C@@]4(C)[C@@H](OC[C@](C)(N)C(C)(C)C)[C@H](n4ncnc4-c4ccncc4)C5)C3=CC[C@@]2(C)[C@@H]1C(=O)O [IBREXA, Ibrexafungerp]
% Survival (R. delemar; through Day +21, placebo 0): 35%
Median Survival (R. delemar; treatment from 24 h post infection, IBREXA 30 mg/kg po BID 7 d, LAMB 10 mg/kg iv 4 d, POSA 30 mg/kg po QD 7 d, placebo 8): 15 days
minimum effective concentration (MEC) (R. delemar 99–880): > 8 µg/mL

Oc1c(C(Nc2nc3ccccc3s2)c2ccc(OC(F)F)cc2)ccc2cccnc12 (stereo not shown) [MMV019724]
inhibition of R. oryzae growth (Rhizopus oryzae): more than 50%

COc1cc(NS(=O)(=O)c2ccc(C)cc2)c2ncccc2c1 [MMV098836]
inhibition of R. oryzae growth (Rhizopus oryzae): more than 50%

CCCCC(CC)CNC(=N)NC(=N)NCCCCCCNC(=N)NC(=N)NCC(CC)CCCC (stereo not shown) [MMV396785, Alexidine]
inhibition at 5 µM (Rhizopus oryzae; Rhizopus arrhizus, read-out: inhibition of R. oryzae growth): > 50%
fungicidal activity (three Rhizopus species): 10 µM
MIC (three Rhizopus species; Rhizopus): 0.63 to 1.25 µM (≈ 0.321 to 0.636 µg/mL)

Oc1cccc(C(Nc2nccs2)c2ccc3cccnc3c2O)c1 (stereo not shown) [MMV642550]
inhibition of R. oryzae growth (Rhizopus oryzae): more than 50%

c1cc(CN2CCCNCCNCCCNCC2)ccc1CN1CCCNCCNCCCNCC1 [MMV1580502]
inhibition of R. oryzae growth (Rhizopus oryzae): more than 50%

CCc1nc(N)nc(N)c1C#CC(C)c1cc(OC)cc(-c2ccncc2)c1 (stereo not shown) [MMV1580844]
inhibition of R. oryzae growth (Rhizopus oryzae): more than 50%
fungicidal activity (three Rhizopus species): did not show fungicidal activity
MIC (three Rhizopus species): 0.08 µM (≈ 0.0299 µg/mL)

Cc1cccc(C)c1C(=O)Nc1nc(-c2ccccn2)cc2ccccc12 [MMV1581558]
inhibition of R. oryzae growth (Rhizopus oryzae): more than 50%

CC(C)(C)C(O)C(Oc1ccc(Cl)cc1)n1cncn1 (stereo not shown) [TDM, triadimenol]
resistance characteristics (McLDM strains): same resistance characteristics as FLC

CCC(C)(C)c1ccc(CC(C)CN2C[C@@H](C)O[C@@H](C)C2)cc1 (stereo partly shown) [amorolfine]
optimal agar concentration preventing growth of WT isolates (Trichophyton spp.): 0.5 mg/L

COC1=CC(=O)C[C@@H](C)[C@]12Oc1c(Cl)c(OC)cc(OC)c1C2=O [griseofluvin, griseofulvin]
IC50 ([1]; inhibition of biofilm formation, read-out: mean concentrations of IC50): 3.18 µg/mL (≈ 9.01 µM)
samples with IC50 in concentration <2 ([1]; tested at 2–32 μg/mL): 66%

CC(C)[C@@H](C)[C@@]1(C)CC[C@]2(C)[C@H]3CC[C@@H]4[C@@]5(COC[C@@]4(C)[C@@H](OC[C@](C)(N)C(C)(C)C)[C@H](n4ncnc4-c4ccncc4)C5)C3=CC[C@@]2(C)[C@@H]1C(=O)O [ibrexafungerp, Ibrexafungerp]
progression of disease [2]: 5.9%
stable disease [2]: 27.1%
complete response, partial response and clinical improvement ([2]; oral, DRC-determined): 65.1%
progression of disease [3]: 6.8%
stable disease [3]: 22.7%
complete response, partial response or clinical improvement ([3]; oral, DRC-determined): 59.1%

CC(=O)N1CCN(c2ccc(OCC3COC(Cn4ccnc4)(c4ccc(Cl)cc4Cl)O3)cc2)CC1 (stereo not shown) [ketoconazole]
MIC [4]: 125 µg/mL (≈ 235 µM)

Cc1cc(N2CCN(c3ccc(C(=O)Nc4ccc(F)cc4)cc3)CC2)ccc1OC[C@@H]1CO[C@@](Cn2cncn2)(c2ccc(F)cc2F)C1 [opelconazole]
drug-drug interactions [5, 8]: no drug-drug interactions reported
tolerability [5, 8]: generally well tolerated
Favorable responses at 3 months ([5]; patients who received opelconazole as treatment after no response to mold-active therapies, number of patients): 9 out of the 11
local concentrations in the lung [6]: high
systemic bioavailability [6]: minimal

B1: IL-18: Mouse cytokine IL-18 (protein, UniProt P70380 36-192, looked up)
Interleukin-18: NFGRLHCTTAVIRNINDQVLFVDKRQPVFEDMTDIDQSASEPQTRLIIYMYKDSEVRGLAVTLSVKDSKMSTLSCKNKIISFEEMDPPENIDDIQSDLIFFQKRVPGHNKMEFESSLYEGHFLACQKEDDAFKLILKKKDENGDKSVMFTLTNLHQS
log10CFU/lung ([7]; mean ± SEM, 3 animals treated for 3 d, placebo 6.1 ± 0.08): 4.82 ± 0.44 log10CFU/lung
survival rates ([7]; survival recorded until 15 d, IL-18 10 ng/mouse intranasally daily -2 d till +7 d, posaconazole 16 mg/kg/day, groups of 10, control 20%): 56%
